Experimental findings from paper PMC11703096 (PLOS ONE, 2025) are described below.

Series [1] addresses T1, A32WT (vaccinia virus A32, putative genome packaging ATPase) (Vaccinia virus WR, UniProt P68615, L234K/Q237A).
T1 construct: gene OPG160
To be noted: read-out: A32LL234K_Q237A / - / DNA.

The target in series [2] is T2, A32WT (vaccinia virus A32, putative genome packaging ATPase) (Vaccinia virus WR, UniProt P68615, K31A).
T2 construct: gene OPG160
The following applies: read-out: A32K31A / - / DNA.

Series [3] deals with the molecule itself. Description: native gel or EMSA.

Consider `Nc1ncnc2c1ncn2[C@@H]1O[C@H](COP(=O)(O)OP(=O)(O)OP(=O)(O)O)[C@@H](O)[C@H]1O` [ATP], for which the results for the Km in series [1] and in series [2] were 0.66 µM and 0.2 µM, respectively.

B1: vaccinia virus A32 protein with an N-terminal thioredoxin tag and a C-terminal hexahistidine tag (A32WT) (enzyme)
chain: MNCFQEKQFSRENLLKMPFRMVLTGGSGSGKTIYLLSLFSTLVKKYKHIFLFTPVYNPDYDGYIWPNHINFVSSQESLEYNLIRTKSNIEKCIAVAQNHKKSAHFLLIFDDVGDKLSKCNTLIEFLNFGRHLNTSIILLCQTYRHVPILGRANITHFCSFNISISDAENMLRSMPVKGKRKDILNMLNMIQTARSNNRLAIIIEDSVFCEGELRICTDTADKDVIEQKLNIDILVNQYSHMKKNLNAILESKKTKLCNSDQSSSSKNVSS
Regarding B1, the binding result in series [3] was “binds”.
